Values joined by “and” are separate entries in the source; they are usually repeats but may differ in a detail not shown here. Equal values may be shown once. Read-outs that look alike come from different tables or passages of the source.
What was measured:
[1] = in vitro; conditions: male, Syrian, hamster, serum
[2] = test system: SARS-CoV-2 hCoV-19/Japan/TY/WK-521 strain; assay: microbe, parasite or virus in culture; type: cell-based; conditions: read-out: CPE EC50
[3] = test system: SARS-CoV-2 Omicron BA.2; parameters: species or system Syrian hamsters; conditions: hamster, in vivo
[4] = in vitro; conditions: female, BALB/cAJcl, mouse, serum
[5] = test system: SARS-CoV-2; conditions: Phase 2a and Phase 2b studies; cited from earlier work
[6] = test system: SARS-CoV-2 Omicron BA.1 strain (hCoV-19/Japan/TY38-873/2021); type: cell-based; conditions: read-out: Viral titre EC90
[7] = test system: SARS-CoV-2 Delta strain (hCoV-19/Japan/TY11-927/2021); type: cell-based; conditions: read-out: Viral titre EC90
[8] = Protein binding of nirmatrelvir in mouse serum by equilibrium dialysis; type: in vitro ADME, BALB/cAJcl mice; conditions: female, BALB/cAJcl, pH 7.4
[9] = BALB/cAJcl, mouse, in vivo
[10] = Protein binding of nirmatrelvir in hamster serum by equilibrium dialysis; type: in vitro ADME, Syrian hamsters; conditions: male, Syrian, pH 7.4
[11] = Severe acute respiratory syndrome coronavirus 2, HEK-293T, 72 h

Cn1cnc(Cn2c(=O)[nH]/c(=N\c3cc4cn(C)nc4cc3Cl)n(Cc3cc(F)c(F)cc3F)c2=O)n1 [Ensitrelvir, ensitrelvir fumaric acid]
fraction unbound [1]: 0.017
EC50 [2, 11]: 0.027 ± 0.002 µM
Antiviral activity in the lungs (viral titres) [3]: failed to show antiviral activity
Antiviral activity in the nasal turbinates compared with that of nirmatrelvir [3]: greater antiviral activity
Lowering of lung viral titres compared with 750/250 mg/kg nirmatrelvir [3]: less effective
fraction unbound [4]: 0.024
Viral titres in nasal lavage fluid [5]: significantly reduced viral titres

O=c1nc(NO)ccn1[C@@H]1O[C@H](CO)[C@@H](O)[C@H]1O [NHC, β-D-N^4-hydroxycytidine]
EC90 [6]: 2.35 µM and 3.66 µM
EC50 [2]: 4 ± 3.5 µM
EC90 [7]: 3.83 µM and 6.72 µM

CC(C)(C)[C@H](NC(=O)C(F)(F)F)C(=O)N1C[C@H]2[C@@H]([C@H]1C(=O)N[C@H](C#N)C[C@@H]1CCNC1=O)C2(C)C [Nirmatrelvir, nirmatrelvir]
EC50 [2, 11]: 0.041 ± 0.013 µM
fraction unbound at 24 h, 4 µM [8]: 0.669
f-C24h unbound drug plasma concentration [9]: 676 ± 609 ng/mL
f-C72h unbound drug plasma concentration [9]: 1490 ± 430 ng/mL
t-C24h total plasma concentration [9]: 1010 ± 910 ng/mL
t-C48h total plasma concentration [9]: 2050 ± 610 ng/mL
t-C72h total plasma concentration [9]: 2230 ± 650 ng/mL
fraction unbound at 24 h, 4 µM [10]: 0.596

CCC(CC)COC(=O)[C@H](C)N[P@](=O)(OC[C@H]1O[C@@](C#N)(c2ccc3c(N)ncnn23)[C@H](O)[C@@H]1O)Oc1ccccc1 [Remdesivir, remdesivir]
EC50 [2, 11]: 0.012 ± 0.002 µM

— article PMC10068418 (Journal of Antimicrobial Chemotherapy, 2023)
